In patent publication US20090106858A1, “Isolation and Characterization of the Csb3-1 Mutant of Arabidopsis Thaliana and Use Thereof as a Regulator of Resistance in Plants to Diseases Caused by Biotrophic Pathogens” (priority 2005, published 2009):
Entries after “also recorded” stand apart in the source; their conditions may differ.

Legend:
[1] = system: P69C-GUS; conditions: wild Arabidopsis plants, local application (Jordá et al., 2000); cited from earlier work
[2] = system: Pseudomonas syringae pv. tomato DC3000; assay: Pst DC3000 bacterial growth in Arabidopsis seedlings sprayed with phosmidomicine before inoculation; type: in vivo, Arabidopsis thaliana
From the text: An increase in substrate (MEcPP) accumulation of the CSB3/HDS enzyme or of any of the intermediate metabolic products that precede MEcPP accumulation in the MEP pathway (FIG. 6) could be responsible for the increased resistance of csb3-1 plants. Alternatively, a decrease of product synthesis (HMBPP) of the same enzyme could compromise the synthesis and accumulation of final products (IPP and DMAPP) (FIG. 6) that in turn could compromise the later biosynthesis of the different isoprenoids that must be derived from the MEP pathway. This last possibility can also be responsible for the resistance increase of the csb3-1 plants. In order to study any of these possibilities the impact of an inhibitor in the MEP pathway for increased resistance of csb3-1 plants to Pst DC3000 was studied. To approach the question in this manner phosmidomicine [3-(N-formil-N-hydroxyamino)-propylphosphonic acid] was used as well as a DXR competitive inhibitor, the enzyme that controls the second stage involved in the MEP pathway (FIG. 6) and reduces the levels of the final products obtained by this pathway (that is, IPP and DMAPP) (Schwender, J., Muller, C., Zeidler, J., and Lichtenthaler, H. K. (1999). Cloning and heterologous expression of a cDNA encoding 1-deoxy-D-xylulose-5 phosphate reductoisomerase of Arabidopsis thaliana. FEBS Lett. 455, 140-144; Laule, O., Furholz, A., Chang, H., Zhu, T., Wang, X., Heifetz, P. B., Gruissem, W., and Lange, M. (2003). Crosstalk between cytosolic and plastidial pathways of isoprenoid biosynthesis in Arabidopsis thaliana. Proc. Natl. Acad. Sci. USA 100, 6866-6871). In order to separate this response from the response derived from an arrest of the chloroplast development, phosmidomicine treatments were applied in much smaller dosages and during smaller periods of times than those used experimentally by others (Laule et al., 2003). Wild seedlings and csb3-1 seedlings were sprayed once with a 25 μM or a 50 μM dilution of phosmidomicine 48 hours and 24 hours before inoculation with Pst DC3000 and the subsequent bacterial growth was recorded in inoculated plants at 0.3 and 5 d.p.i. Treated plants were also studied to determine the effect on the normal expression of the P69C-GUS gene. […] Greater dosages of this inhibitor were not tested, since they could have a collateral developmental and/or homeostatic effect in the chloroplast that could lead to undesired side effects.
FIG. 8. […] The plants were exposed to Pst DC3000 and the pathogen's growth was recorded at days 0, 3 and 5 after inoculation (dpi). • (B) The effect of the phosmidomicine treatment (25 μM, treated as described in point (A) on the constitutive expression of P69C-GUS in csb3-1 seedlings (right) as compared with csb3-1 seedlings treated with the buffer solution alone (left). • (C) The effect of the phosmidomicine treatment (25 μM, treated as described in point (A) on the constitutive expression of SA regulated marker genes in csb3-1 seedlings of Arabidopsis as compared with csb3-1 seedlings treated with the buffer solution alone.
Pseudomonas syringae pv. tomato DC3000 was grown and was then prepared to be inoculated as previously described (Mayda et al., 2000). […] A high throughput method for quantifying growth of phytopathogenic bacteria in Arabidopsis thaliana. […]

[3] = system: PR-1 and GST6 marker genes; assay: RT-PCR analysis of SA regulated marker genes PR-1 and GST6; type: in vivo, Arabidopsis thaliana; conditions: csb3-1 seedlings, 25 μM
Procedure: (§1) FIG. 8. Pharmacological complementation with phosmidomicine of the resistance increase in csb3-1 plants. • (A) Wild seedlings (wt) and csb3-1 seedlings of Arabidopsis were sprayed once at 48 hours and 24 hours before exposing them to Pst DC3000 with a buffer solution complemented with 25 μM or 50 μM dilution (+phosm) the controls were treated in a similar manner with buffer solution alone. The plants were exposed to Pst DC3000 and the pathogen's growth was recorded at days 0, 3 and 5 after inoculation (dpi). • (B) The effect of the phosmidomicine treatment (25 μM, treated as described in point (A) on the constitutive expression of P69C-GUS in csb3-1 seedlings (right) as compared with csb3-1 seedlings treated with the buffer solution alone (left). • (C) The effect of the phosmidomicine treatment (25 μM, treated as described in point (A) on the constitutive expression of SA regulated marker genes in csb3-1 seedlings of Arabidopsis as compared with csb3-1 seedlings treated with the buffer solution alone.
To analyze the level of genic expression by inverse transcriptase mediated PCR, the total RNA samples from leaf tissue were prepared using the Totally RNA kit made by Ambion (Austin, Tex.). Inverse transcription was done using the RT kit for PCR made by Clontech (Palo Alto, Calif.). […]

[4] = system: P69C-GUS; assay: Histochemical GUS staining of P69C-GUS indicator gene expression; type: in vivo, Arabidopsis thaliana; conditions: csb3-1 seedlings, 25 μM
Procedure: as §1
The mutant line csb3-1 used in these experiments had been subjected to backcrossing at least four times with the original wild line. Plants were made to grow in a growth chamber (19-23° C., fluorescent light at 100 μEm^−2 seg^−1) in a cycle of 10 hours of light to 14 hours of darkness. […]

Compound	expression of P69C-GUS after local application [1]	effect on increased resistance of csb3-1 plants to Pst DC3000 (bacterial growth) ([2]; csb3-1 plants, 5 μM treatments)	complementation of the resistance increase phenotype associated to csb3-1 ([2]; csb3-1 plants, summary statement)	effect on increased resistance of csb3-1 plants to Pst DC3000 (bacterial growth) ([2]; csb3-1 seedlings, one 50 μM treatment)	effect on increased resistance of csb3-1 plants to Pst DC3000 (bacterial growth) ([2]; csb3-1 seedlings, sprayed once with 25 μM 48 h and 24 h before inoculation)	effect on normal resistance of wild plants to Pst DC3000 (bacterial growth) ([2]; wild plants, 50 μM)	effect on constitutive expression of PR-1 and GST6 marker genes [3]	effect on constitutive expression of the P69C-GUS transgene [4]
O=C(O)c1ccccc1O [SA, Salicylic acid]	induces the expression of the P69C-GUS	–	–	–	–	–	–	–
O=CN(O)CCCP(=O)(O)O [phosmidomicine, 3-(N-formil-N-hydroxyamino)-propylphosphonic acid]	–	provoked a reduction in the increased resistance of the csb3-1 plants that was only observed 5 days after inoculation	complement completely the resistance increase phenotype associated to csb3-1	completely suppressed the resistance increase attributed to the csb3-1 mutation	noticeably reduce resistance increase to Pst DC3000	made the plants more susceptible to this virulent pathogen; also recorded: resulted in greater rates of bacterial growth	regulation by reduction of the constitutive expression	regulation by reduction of the constitutive expression of the P69G-GUS transgene
